Source: patent US10179125B2, “Substituted pyridines as bromodomain inhibitors” (Zenith Epigenetics Ltd., priority 2014, dated 2019)

Experiments:
[1] = molecular target: T1, Brd4 bromodomain 1 (BRD4(1)) (Homo sapiens, UniProt O60885); assay: Inhibition of tetra-acetylated histone H4 binding to BET bromodomain (HTRF/FRET); settings: His-tagged bromodomain 200 nM, biotinylated tetra-acetylated histone H4 peptide, 2 h room temperature
T1 construct: made in house; host or cells: E. coli BL21(DE3)
Procedure: Proteins were cloned and overexpressed with a N-terminal 6×His tag, then purified by nickel affinity followed by size exclusion chromatography. Briefly, E. coli BL21(DE3) cells were transformed with a recombinant expression vector encoding N-terminally Nickel affinity tagged bromodomains from Brd2, Brd3, Brd4. Cell cultures were incubated at 37° C. with shaking to the appropriate density and induced overnight with IPTG. The supernatant of lysed cells was loaded onto Ni-IDA column for purification, Eluted protein was pooled, concentrated and further purified by size exclusion chromatography. Fractions representing monomeric protein were pooled, concentrated, aliquoted, and frozen at −80° C. for use in subsequent experiments.
Binding of tetra-acetylated histone H4 and BET bromodomains was confirmed by a Homogenous Time Resolved Fluorescence Resonance Energy Transfer (HTRF®) method, N-terminally His-tagged bromodomains (200 nM) and biotinylated tetra-acetylated histone H4 peptide (25-50 nM, Millipore) were incubated in the presence of Europium Cryptate-labeled streptavidin (Cisbio Cat, #610SAKLB) and XL665-labeled monoclonal anti-His antibody (Cisbio Cat.1461HISXLB) in a white 96 well microtiter plate (Greiner). For inhibition assays, serially diluted test compound was added to these reactions in a 0.2% final concentration of DMSO. Duplicate wells were used for each concentration tested. Final buffer concentrations were 30 mM HEPES pH 7.4, 30 mM NaCl, 0.3 mM CHAPS, 20 mM phosphate pH 7.0, 320 mM KF, 0.08% BSA. After a 2 h incubation at room temperature, fluorescence was measured at 665 and 620 nm with a SynergyH4 plate reader (Biotek). The binding inhibitory activity was shown by a decrease in […] relative to 620 nm fluorescence. IC50 values were determined from a dose response curve.

cMYC = assay: Inhibition of cMYC expression in MV4-11 cells (real-time PCR); format: cell-based, Human; settings: 3 h, cMYC mRNA; for IC50: Homo sapiens, read-out: c-myc activity
Procedure: MV4-11 cells (CRL-9591) were plated at a density of 2.5×10^4 cells per well in 96 well U-bottom plates and treated with increasing concentrations of test compound or DMSO (0.1%) in IMDM media containing 10% FBS and penicillin/streptomycin, and incubated for 3 h at 37° C. Triplicate wells were used for each concentration. Cells were pelleted by centrifugation and harvested using the mRNA Catcher PLUS kit according to manufacturer's instructions. The eluted mRNA isolated was then used in a one-step quantitative real-time PCR reaction, using components of the RNA UltraSense™ One-Step Kit (Life Technologies) together with Applied Biosystems TaqMan® primer-probes for cMYC and Cyclophilin, Real-time PCR plates were run on a ViiA™7 real time PCR machine (Applied Biosystems), data was analyzed, normalizing the Ct values for cMYC to an internal control, prior to determining the fold expression of each sample, relative to the control.

Human AML MV-4-11 cells = assay: Inhibition of cell proliferation in MV4-11 cells (CellTiter Aqueous One); format: cell-based; settings: 72 h; for IC50: Homo sapiens
Procedure: MV4-11 cells (CRL-9591) were plated at a density of 5×10^4 cells per well in 96 well flat bottom plates and treated with increasing concentrations of test compound or DMSO (0.1%) in IMDM media containing 10% FBS and penicillin/streptomycin. Triplicate wells were used for each concentration and a well containing only media was used as a control. Plates were incubated at 37° C., 5% CO2 for 72 h before adding 20 μL of the CellTiter Aqueous One Solution (Promega) to each well and incubated at 37° C., 5% CO2 for an additional 3-4 h. The absorbance was read at 490 nm in a spectrophotometer and the percentage of cell titer relative to DMSO-treated cells was calculated after correcting for background by subtracting the blank well's signal. IC50 values were calculated using the GraphPad Prism software.

hIL-6 = assay: Inhibition of hIL-6 mRNA transcription in LPS-stimulated U937 cells; format: cell-based, Human; settings: 1 h pretreatment, LPS 3 h; for IC50: Homo sapiens, U-937, PMA-differentiated U937 cells, read-out: IL-6 activity
Procedure: Human leukemic monocyte lymphoma U937 cells (CRL-1593.2) were plated at a density of 3.2×10^4 cells per well in a 96-well plate in 100 μL RPMI-1640 containing 10% FBS and penicillin/streptomycin, and differentiated into macrophages for 3 days in 60 ng/mL PMA ([…]) at 37° C. in 5% CO2 prior to the addition of compound. The cells were pretreated for 1 h with increasing concentrations of test compound in 0.1% DMSO prior to stimulation with 1 ug/mL lipopolysaccharide from Escherichia coli. Triplicate wells were used for each concentration. The cells were incubated at 37° C., 5% CO2 for 3 h before the cells were harvested. At time of harvest, media was removed and cells were rinsed in 200 μL PBS. Cells were harvested using the mRNA Catcher PLUS kit according to manufacturer's instructions. The eluted mRNA was then used in a one-step quantitative real-time PCR reaction using components of the RNA UltraSense™ One-Step Kit (Life Technologies) together with Applied Biosystems TaqMan® primer-probes for hIL-6 and Cyclophilin. Real-time PCR plates were run on a ViiA™7 real time PCR machine (Applied Biosystems), data was analyzed, normalizing the Ct values for hIL-6 to an internal control, prior to determining the fold expression of each sample, relative to the control.

| Compound | IC50 [1] | IC50 (cMYC) | IC50 (Human AML MV-4-11 cells) | IC50 (hIL-6) | IL-6 activity (hIL-6; PMA-differentiated U937 cells) | c-myc activity (cMYC) | Cell Proliferation activity (Human AML MV-4-11 cells) |
| --- | --- | --- | --- | --- | --- | --- | --- |
| COc1ncc(-c2c(C)noc2C)cc1NC(C)c1ccccc1 (stereo not drawn) [Example 5, 5-(3,5-dimethylisoxazol-4-yl)-2-methoxy-N-(1-phenylethyl)pyridin-3-amine] | 300 to 3000 nM | 300 to 3000 nM | 300 to 3000 nM | 300 to 3000 nM |  |  |  |
| COc1ncc(-c2c(C)noc2C)cc1NC(C)c1ccc(F)cc1 (stereo not drawn) [Example 12, 5-(3,5-dimethylisoxazol-4-yl)-N-(1-(4-fluorophenyl)ethyl)-2-methoxypyridin-3-amine] | ≤ 300 nM | 300 to 3000 nM | 300 to 3000 nM | 300 to 3000 nM |  |  |  |
| COc1ncc(-c2c(C)noc2C)cc1Nc1ccc(F)cc1 [Example 19, 5-(3,5-dimethylisoxazol-4-yl)-N-(4-fluorophenyl)-2-methoxypyridin-3-amine] | ≤ 300 nM | 300 to 3000 nM | 300 to 3000 nM | 300 to 3000 nM |  |  |  |
| COc1ncc(-c2c(C)noc2C)cc1NCc1ccccn1 [Example 21, 5-(3,5-dimethylisoxazol-4-yl)-2-methoxy-N-(pyridin-2-ylmethyl)pyridin-3-amine] | ≤ 300 nM | 300 to 3000 nM | 300 to 3000 nM | 300 to 3000 nM |  |  |  |
| COc1ncc(-c2c(C)noc2C)cc1Nc1ccc(Cl)cc1 [Example 36, N-(4-chlorophenyl)-5-(3,5-dimethylisoxazol-4-yl)-2-methoxypyridin-3-amine] | ≤ 300 nM | 300 to 3000 nM | 300 to 3000 nM | 3000 to 30000 nM |  |  |  |
| COc1ncc(-c2c(C)noc2C)cc1NCc1ccc(C#N)s1 [Example 50, 5-(((5-(3,5-dimethylisoxazol-4-yl)-2-methoxypyridin-3-yl)amino)methyl)thiophene-2-carbonitrile] | ≤ 300 nM | 300 to 3000 nM | 3000 to 30000 nM |  | Not Active |  |  |
| COc1ncc(-c2c(C)noc2C)cc1NCc1ccc(Cl)s1 [Example 8, N-((5-chlorothiophen-2-yl)methyl)-5-(3,5-dimethylisoxazol-4-yl)-2-methoxypyridin-3-amine] | ≤ 300 nM | 3000 to 30000 nM | 3000 to 30000 nM | 300 to 3000 nM |  |  |  |
| COc1ncc(-c2c(C)noc2C)cc1OCc1ccccn1 [Example 40, 4-(6-methoxy-5-(pyridin-2-ylmethoxy)pyridin-3-yl)-3,5-dimethylisoxazole] | ≤ 300 nM | 300 to 3000 nM | 3000 to 30000 nM | 300 to 3000 nM |  |  |  |
| COc1ncc(-c2c(C)noc2C)cc1Nc1cn(C)nc1C [Example 63, N-(1,3-dimethyl-1H-pyrazol-4-yl)-5-(3,5-dimethylisoxazol-4-yl)-2-methoxypyridin-3-amine] | ≤ 300 nM | 300 to 3000 nM | 300 to 3000 nM | 300 to 3000 nM |  |  |  |
| COc1ncc(-c2c(C)noc2C)cc1Oc1cc(C(N)=O)ccc1C [Example 67, 3-((5-(3,5-dimethylisoxazol-4-yl)-2-methoxypyridin-3-yl)oxy)-4-methylbenzamide] | ≤ 300 nM | 300 to 3000 nM | 3000 to 30000 nM | 300 to 3000 nM |  |  |  |
| COc1ncc(-c2c(C)noc2C)cc1NCc1ccncc1 [Example 17, 5-(3,5-dimethylisoxazol-4-yl)-2-methoxy-N-(pyridin-4-ylmethyl)pyridin-3-amine] | 300 to 3000 nM | 3000 to 30000 nM | 3000 to 30000 nM | 300 to 3000 nM |  |  |  |
| COc1ncc(-c2c(C)noc2C)cc1NCc1nc2ccccc2s1 [Example 57, N-(benzo[d]thiazol-2-ylmethyl)-5-(3,5-dimethylisoxazol-4-yl)-2-methoxypyridin-3-amine] | ≤ 300 nM | 300 to 3000 nM | 3000 to 30000 nM | 300 to 3000 nM |  |  |  |
| CNc1ncc(-c2c(C)noc2C)cc1NCc1nccs1 [Example 56, 5-(3,5-dimethylisoxazol-4-yl)-N2-methyl-N3-(thiazol-2-ylmethyl)pyridine-2,3-diamine] | ≤ 300 nM | 300 to 3000 nM | 300 to 3000 nM | 300 to 3000 nM |  |  |  |
| CNc1ncc(-c2c(C)noc2C)cc1NCc1ccccn1 [Example 55, 5-(3,5-dimethylisoxazol-4-yl)-N2-methyl-N3-(pyridin-2-ylmethyl)pyridine-2,3-diamine] | ≤ 300 nM | 300 to 3000 nM | 300 to 3000 nM | 300 to 3000 nM |  |  |  |
| Cc1noc(C)c1-c1cnc(Oc2ccccc2)c(NCc2nccs2)c1 [Example 52, 5-(3,5-dimethylisoxazol-4-yl)-2-phenoxy-N-(thiazol-2-ylmethyl)pyridin-3-amine] | ≤ 300 nM | 3000 to 30000 nM | 3000 to 30000 nM | 300 to 3000 nM |  |  |  |
| COc1ncc(-c2c(C)noc2C)cc1Nc1c(C)nn(C)c1C [Example 60, 5-(3,5-dimethylisoxazol-4-yl)-2-methoxy-N-(1,3,5-trimethyl-1H-pyrazol-4-yl)pyridin-3-amine] | ≤ 300 nM | ≤ 300 nM | 300 to 3000 nM | ≤ 300 nM |  |  |  |
| COc1ncc(-c2c(C)noc2C)cc1Nc1cccc(F)c1 [Example 3, 5-(3,5-dimethylisoxazol-4-yl)-N-(3-fluorophenyl)-2-methoxypyridin-3-amine] | ≤ 300 nM | 300 to 3000 nM | 3000 to 30000 nM | 300 to 3000 nM |  |  |  |
| Cc1noc(C)c1-c1cnc(OC(C)C)c(NCc2ccccc2)c1 [Example 27, N-benzyl-5-(3,5-dimethylisoxazol-4-yl)-2-isopropoxypyridin-3-amine] | ≤ 300 nM | 3000 to 30000 nM | 3000 to 30000 nM | 300 to 3000 nM |  |  |  |
| COc1ncc(-c2c(C)noc2C)cc1Oc1cc(C#N)ccc1C [Example 65, 3-((5-(3,5-dimethylisoxazol-4-yl)-2-methoxypyridin-3-yl)oxy)-4-methylbenzonitrile] | 300 to 3000 nM | 3000 to 30000 nM | 3000 to 30000 nM | 300 to 3000 nM |  |  |  |
| COc1ncc(-c2c(C)noc2C)cc1NC(C)c1ccccn1 (stereo not drawn) [Example 24, 5-(3,5-dimethylisoxazol-4-yl)-2-methoxy-N-(1-(pyridin-2-yl)ethyl)pyridin-3-amine] | ≤ 300 nM | 300 to 3000 nM | 300 to 3000 nM | 300 to 3000 nM |  |  |  |
| COc1ncc(-c2c(C)noc2C)cc1NCc1nc2ccccc2[nH]1 [Example 53, N-((1H-benzo[d]imidazol-2-yl)methyl)-5-(3,5-dimethylisoxazol-4-yl)-2-methoxypyridin-3-amine] | 300 to 3000 nM |  |  | 3000 to 30000 nM |  | Not Active | Not Active |
